{"source": "patent US20130150455A1", "about": "“METHOD FOR TREATING MECHANICAL ALLODYNIA COMPRISING ADMINISTRATION OF EUGENOL” (SNU R&DB FOUNDATION, priority 2011, published 2013)", "key": {"Ih conductance": {"system": "Ih conductance", "details": "cited from earlier work"}, "injured nerve fibers": {"system": "injured nerve fibers", "details": "in vivo; cited from earlier work"}, "ION-CCI rats [1]": {"system": "ION-CCI rats", "experiment": "Mechanical allodynia, air-puff threshold head withdrawal test", "format": "in vivo, rat", "experimental": "(§1) All surgical and experimental procedures were reviewed and approved by the Institutional Animal Care and Use Committee at the School of Dentistry, Seoul National University. Animal treatments were performed in strict accordance with the ethical guidelines of the International Association for the Study of Pain for the investigations of experimental pain in conscious animals [Zimmermann, M., Pain, 1983, 16: 109-110], and the National Institute of Health Guide for the Care and Use of Laboratory Animals. Behavioral tests were carried out on male Sprague Dawley rats (OrientBio, Sungnam, Korea) weighing 200-250 g. The rats were maintained in a temperature-controlled room with a 12/12-h light/dark cycle and fed food and water ad libitum. The animals were allowed to habituate to the housing facilities for 1 week before the experiments.\n(§2) Surgical procedures were performed under 0.5 mL/kg (i.m.) of a mixture of equal volumes of ketamine (100 mg/mL) and xylazine (20 mg/mL) anesthesia. Under anesthesia, a chronic constriction injury of the infraorbital nerve (ION-CCI) was performed from the original description of Imamura et al. [Imamura, Y. et al., Exp. Brain Res., 1997, 116: 97-103]. A 1-cm-long incision was made along the gingivobuccal margin. The incision was begun proximal to the first molar. Approximately 0.5 cm of the ION was separated from the adhering tissue, and 2 ligatures (5-0 chromic gut) were tied loosely around it. The incision was sutured at 3 points with 4-0 silk. The sham operation was performed without ligation of the infraorbital nerve.\nOn postoperative 7 day, ION-CCI rats were placed in customized observation cages that were then placed in a darkened and noise-free room to conduct behavioral observations. The animals were acclimated for at least 30 min. Mechanical allodynia was determined as previously described [Ahn, D. K. et al., Pain, 2009, 146: 114-120], by observing withdrawal behavior, produced by 10 successive trials of constant air-puff pressure (4-s duration, 10-s intervals) in freely moving rats. The intensity and intervals of the air-puff pressure were controlled with a pneumatic pump module (BH2 system, Harvard Apparatus, Holliston, Mass.). The air puffs were applied through a 26-gauge metal tube (length, 10 cm) located 1 cm from the skin at a 90° angle. Thresholds were determined through the air-puff pressure at which each rat withdrew its head in 50% of the trials. The cutoff pressure for the air puffs was 40 psi. […] After eugenol (1 μg/30 μL, 5 μg/30 μL or 10 μg/30 μL; 200 μM, 1 mM, or 2 mM, respectively) was administered subcutaneously into the vibrissa pad, air-puff thresholds were determined at 15 and 30 min, and at 1, 2, 3, 4, 5, 6, and 24 hr after eugenol injection. In the control group, 30 μL of the vehicle (30% DMSO/saline) was injected subcutaneously."}, "[2]": {"system": "voltage-gated sodium channels (VGSCs)", "experiment": "VGSC currents in TG neurons in normal bath solution", "format": "cell-based, rat", "details": "200 μM, n=3", "experimental": "(B) The left figure represents the comparison of action potentials at an expanded time scale before and after exposure to eugenol (200 μM), and the Right figure represents a summary of the dV/dt analysis. (C) The left figure represents superimposed current traces before and during exposure to eugenol (200 μM) in the normal bath solution where inward currents result from VGSCs, and the right figure represents a summary of eugenol-induced VGSC currents inhibition (n=3).\nWhole-cell recordings were made using patch electrodes (4 to 6 MΩ) pulled from borosilicate glass on a Brown-Flaming P-97 horizontal micropipette puller (Sutter Instruments, Novato, Calif.). Voltage- and current-clamp experiments were performed using an HEKA EPC9 amplifier and digitized using ITC16 and Pulse v8.54 software (both from HEKA, Lambrecht/Pfalz, Germany). Signals were filtered at 1 kHz and sampled at 3 kHz. Series resistance was typically less than 20 MΩ and was compensated by about 70 to 80%. Electrical recordings were performed at room temperature. The 3 M KCl agar bridge (Warner Instruments, Hamden, Conn.) is used to avoid high liquid junction potentials. Data were analyzed by Origin 6.0 software.\nExtracellular solution containing 140 mM NaCl, 2 mM CaCl2, 1 mM MgCl2, 5 mM KCl, 10 mM HEPES, 10 mM D-glucose was adjusted to pH 7.4 with NaOH, 290 to 310 mOsm. […]"}, "TG neurons": {"system": "TG neurons", "experiment": "Current-clamp action potential firing in TG neurons", "format": "cell-based, rat", "details": "200 μM", "experimental": "TG neurons from 2- to 7-day-old neonatal rats or adult rats (200 to 300 g) were prepared as previously described [Fang, Z. et al., J. Biol. Chem., 2007, 282: 4757-4764]. Briefly, TG neurons prepared in 4° C. Hanks balanced salt solution (Welgene, Daegu, Korea) were incubated in 2 mL Hanks balanced salt solution containing 0.167% trypsin (Invitrogen, Carlsbad, Calif.) at 37° C. for 40 min. The cells were washed in DMEM and triturated with a flame-polished Pasteur pipette to separate cells and remove processes, and subsequently centrifuged (750 RPM, 5 min), resuspended and placed on 0.5 mg/mL poly-L-ornithine (Sigma, St. Louis, Mo.)-coated glass coverslips (12 mm in diameter). The cells were maintained at 37° C. in a […]/5% CO2 incubator.\nWhole-cell recordings were made using patch electrodes (4 to 6 MΩ) pulled from borosilicate glass on a Brown-Flaming P-97 horizontal micropipette puller (Sutter Instruments, Novato, Calif.). Voltage- and current-clamp experiments were performed using an HEKA EPC9 amplifier and digitized using ITC16 and Pulse v8.54 software (both from HEKA, Lambrecht/Pfalz, Germany). […] Data were analyzed by Origin 6.0 software. […]\nIh was elicited by a 2 s pulse from a holding potential of −50 mV to −120 mV in 10 mV steps. […] The reversal potential of the eugenol-sensitive currents was determined by measuring the tail currents. […]"}, "ION-CCI rats [3]": {"system": "ION-CCI rats", "details": ">50 μg; cited from earlier work"}, "ION-CCI rats [4]": {"system": "ION-CCI rats", "experiment": "Thermal hyperalgesia, head withdrawal latency to radiant heat", "format": "in vivo, rat", "experimental": "as §1, §2\nThermal hyperalgesia was also determined as previously described [Ahn, D. K. et al., Pain, 2009, 146: 114-120; Park, C. K. et al., Pain, 2009, 144: 84-94]. Each rat was placed in a customized cylinder-type acrylic rodent restrainer (height 40 to 60 mm, length 70 to 120 mm). […] Each restrainer was placed in a darkened and noise-free room, and the animals were habituated for at least 30 min before the start of the experiment. After radiant heat was applied to the midregion of the left vibrissa pad, the head withdrawal latency was determined. The application of heat stimuli was performed using an infrared thermal stimulator (Infrared Diode Laser, LVI-808-10, LVI tech, Seoul, Korea). The power and current of the thermal stimulator were adjusted to 11 W and 18.1 A, respectively. The thermal stimuli produced stable withdrawal latencies of approximately 11 s for a 10-cm distance from the heat source to the vibrissa pad. […] After eugenol (10 μg/30 μL or 50 μg/30 μL; 2 mM or 10 mM, respectively) was administered subcutaneously into the vibrissa pad, the latencies of withdrawal responses were determined at 10, 20, 30, 40, 50, and 60 min and 24 h after eugenol injection. […]"}, "[5]": {"system": "voltage-gated sodium channels (VGSCs)", "details": "conventional concentration, equals 50 μg; cited from earlier work"}, "[6]": {"system": "hyperpolarization-activated current (Ih) in TG neurons (HCN channels)", "experiment": "Whole-cell recordings of Ih in TG neurons", "format": "cell-based, rat"}, "[7]": {"details": "concentration lower than that which would inhibit VGSCs (50 μg; 10 mM)"}}, "note": "Entries after “also recorded” stand apart in the source; their conditions may differ.", "data": [{"smiles": "CCN(c1ccccc1)c1cc(=NC)n(C)c(C)n1.Cl", "note": "[ZD7288]", "values": [{"measurement": "action potential duration", "setting": "Ih conductance", "result": "prolonged"}, {"measurement": "repetitive firing during tetanic bursts", "setting": "Ih conductance", "result": "diminished"}, {"measurement": "pain behavior", "setting": "injured nerve fibers", "result": "reversed"}, {"measurement": "spontaneous discharges in injured nerve fibers", "setting": "injured nerve fibers", "result": "reversed"}]}, {"smiles": "C=CCc1ccc(O)c(OC)c1", "note": "[eugenol, 4-allyl-2-methoxyphenol]", "values": [{"measurement": "air-puff thresholds", "setting": "ION-CCI rats [1]; 1 μg subcutaneous into vibrissa pad, 7 day ION-CCI", "result": "significantly enhanced"}, {"measurement": "air-puff threshold", "setting": "ION-CCI rats [1]; 5 to 10 μg subcutaneous, cutoff 40 psi", "result": "reached the cutoff"}, {"measurement": "onset of effect", "setting": "ION-CCI rats [1]; FIG. 7B", "result": "occurred immediately"}, {"measurement": "effect on mechanical allodynia", "setting": "ION-CCI rats [1]; [7]", "result": "ameliorating effect"}, {"measurement": "antiallodynic effects on mechanical allodynia", "setting": "ION-CCI rats [1]; subcutaneous 1 μg, 5 μg, 10 μg, n=6 per group, p<0.05", "result": "significantly produced prolonged the antiallodynic effects"}, {"measurement": "VGSC currents", "setting": "[2]", "result": "not affected"}, {"measurement": "dV/dt of action potential", "setting": "TG neurons", "result": "not changed"}, {"measurement": "firing rates of action potentials", "setting": "TG neurons; 50 pA depolarizing current injection, n=4", "result": "reduced"}, {"measurement": "thermal pain / thermal hyperalgesia, previous study", "setting": "ION-CCI rats [3]", "result": "blocks thermal pain in a dose-dependent manner; also recorded: ameliorated thermal hyperalgesia"}, {"measurement": "thermal hyperalgesia / thermal hypersensitivity", "setting": "ION-CCI rats [4]; 50 μg subcutaneous, n=6, p<0.05", "result": "significantly reduced; also recorded: significantly inhibited"}, {"measurement": "thermal hyperalgesia", "setting": "ION-CCI rats [4]; <10 μg", "result": "not effective"}, {"measurement": "effect on thermal hyperalgesia", "setting": "ION-CCI rats [4]; [7]", "result": "no effect"}, {"measurement": "thermal hypersensitivity", "setting": "ION-CCI rats [4]; low dose 10 μg subcutaneous, n=6", "result": "no effect"}, {"measurement": "concentration at which eugenol inhibits VGSCs", "setting": "[5]", "result": 10, "unit": "mM"}, {"measurement": "eugenol-induced Ih inhibition with 8-Br-cAMP", "setting": "[6]; 200 μM eugenol, 8-Br-cAMP (100 μM) in pipette solution, n=6", "result": "17.5±3.7", "unit": "%"}, {"measurement": "eugenol-induced Ih inhibition with Rp-cAMPs", "setting": "[6]; 200 μM eugenol, Rp-cAMPs (100 μM), n=6", "result": "25.7±3.4", "unit": "%"}, {"measurement": "eugenol-induced Ih inhibition with Sp-cAMPS", "setting": "[6]; 200 μM eugenol, Sp-cAMPs (100 μM), n=5", "result": "20.1±3.1", "unit": "%"}, {"measurement": "Ih inhibition after pretreatment with NEM", "setting": "[6]; 200 μM eugenol, TG neurons pretreated 5 min with NEM (50 μM), n=8", "result": "69.2±4.4", "unit": "%"}, {"measurement": "Ih inhibition", "setting": "[6]; 200 μM, TG neurons of adult (naive) rats, n=11", "result": "73.0±3.9", "unit": "%"}, {"measurement": "Ih inhibition", "setting": "[6]; 200 μM, TG neurons of neonatal rats, n=27", "result": "63.3±1.6", "unit": "%"}, {"measurement": "Ih inhibition", "setting": "[6]; 200 μM, injured DiI-labeled TG neurons of ION-CCI rats, n=7", "result": "67.5±4.0", "unit": "%"}, {"measurement": "reversibility of Ih inhibition", "setting": "[6]; 200 μM, sequential application, FIG. 2A", "result": "reversible and repetitively reproduced"}, {"measurement": "maximal Ih amplitude", "setting": "[6]; 200 μM, step pulses −50 to −120 mV, full range of voltages", "result": "reduced"}, {"measurement": "Eugenol-induced Ih inhibition", "setting": "[6]; 200 μM, without NEM, n=8, FIG. 6A", "result": "66.1±1.8", "unit": "%"}, {"measurement": "Ih block", "setting": "[6]; 500 μM and 1 mM, FIG. 3", "result": "complete Ih block"}, {"measurement": "mean Vrev (reversal potential of Ih)", "setting": "[6]; after application of 200 μM eugenol, n=4, control −29.4±2.3 mV", "result": "−25.8±1.4", "unit": "mV"}, {"measurement": "IC50", "setting": "[6]; read-out: IC50 of Ih inhibition, TG neurons, dose dependent, FIG. 3", "result": 157, "unit": "µM"}]}]}
